The source of these data is publication PMC8141533, “Structural and biochemical analysis of human ADP-ribosyl-acceptor hydrolase 3 reveals the basis of metal selectivity and different roles for the two magnesium ions” (The Journal of Biological Chemistry, 2021).

Assay [1] has as its target T1, ARH3 (Homo sapiens, UniProt Q9NX46).
T1 construct: we determined the structure of full-length ARH3 in complex with ADPR and Ca^2+; made in house
T1 sequence (Q9NX46 1-363): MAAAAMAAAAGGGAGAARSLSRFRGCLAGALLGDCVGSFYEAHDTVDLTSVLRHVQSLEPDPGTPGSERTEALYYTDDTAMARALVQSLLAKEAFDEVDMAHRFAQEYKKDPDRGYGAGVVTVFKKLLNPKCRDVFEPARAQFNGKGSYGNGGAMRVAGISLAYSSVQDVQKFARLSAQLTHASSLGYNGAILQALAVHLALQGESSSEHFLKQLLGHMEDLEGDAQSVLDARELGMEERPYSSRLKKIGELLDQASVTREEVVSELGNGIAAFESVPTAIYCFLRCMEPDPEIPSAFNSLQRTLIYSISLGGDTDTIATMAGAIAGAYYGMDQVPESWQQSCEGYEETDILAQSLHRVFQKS
Kind of assay: Gel-based PAR turnover assay (PARylated PARP1C substrate). The class given is biochemical. The following applies: for effect on PAR hydrolysis by ARH3: WT ARH3 2 μM, 5 mM EDTA or Ca^2+, PARylated PARP1C, 1 h, 37 °C. As for the experimental part:
A gel-based PAR-turnover assay was performed to evaluate the enzymatic activity of ARH3^WT, ARH3^D77A, ARH3^D78A, ARH3^D314A, and ARH3^D316A, as described previously ([14], [40]). Briefly, 2 μM of the catalytic domain of human PARP1 (PARP1C; residues 375–1014) was auto-PARylated at 37 °C for 30 min in the presence of 2 μM DBD of PARP1 (residues 1–374), 2 μM double-stranded DNA, and 400 μM β-NAD^+ (Sigma) in a buffer containing 100 mM NaCl, 50 mM Tris (pH 7.5), 10 mM MgCl2, and 2 mM DTT. ARH3 proteins (in the presence of 5 mM EDTA, Mg^2+, or Ca^2+) with final concentrations of 2 μM were mixed with the PARylated PARP1C substrate, followed by incubation for 1 h in 37 °C. Reactions then were stopped by adding 4× SDS-loading dye (Bio-Rad) and visualized by Coomassie blue staining of SDS-polyacrylamide gels.

Assay [2] addresses T2, ARH3^D314A (Homo sapiens, UniProt Q9NX46, D314A).
T2 construct: His6 with PreScission protease cleavage site (N); made in house
T2 sequence (Q9NX46 1-363 D314A): T1 sequence (Q9NX46 1-363) with D314A
Kind of assay: Isothermal titration calorimetry (ITC) of ADPR binding to ARH3^D314A. As for the experimental part: (§1) ITC experiments were performed at 25 °C in a buffer containing 150 mM NaCl, 100 mM Tris at pH 7.5, and 5 mM divalent metals (MgCl2, MnCl2, and CaCl2) or EDTA (Sigma–Aldrich). The WT or mutants of ARH3 were placed in a cell at 50 μM concentration, and ADPR was placed in the injection syringe at 660 μM concentration. Overall, 26 injections (10 μl per injection except for the first sample [5 μl]) were administered with an interval of 5 min between peaks to allow the baseline to be stabilized. […] The obtained plots were fitted with a single-site binding model in the Origin software package (MicroCal, Inc).

Assay [3] addresses T3, ARH3^WT (Homo sapiens, UniProt Q9NX46).
T3 construct: we determined the structure of full-length ARH3 in complex with ADPR and Ca^2+; made in house
T3 sequence (Q9NX46 1-363): T1 sequence (Q9NX46 1-363)
Kind of assay: Isothermal titration calorimetry (ITC) of ADPR binding to ARH3^WT. The conditions noted are these: for Kd / N (sites) / ΔG / ΔH / −TΔS: 25 °C, pH 7.5. Here is the method:
as §1

For assay [4], the target named is T4, ARH3^D77A (Homo sapiens, UniProt Q9NX46, D77A).
T4 construct: His6 with PreScission protease cleavage site (N); made in house
T4 sequence (Q9NX46 1-363 D77A): T1 sequence (Q9NX46 1-363) with D77A
Kind of assay: Isothermal titration calorimetry (ITC) of ADPR binding to ARH3^D77A. As for the experimental part: as §1
(Isothermal titration calorimetry measures the heat released or taken up as one component is titrated into another.)

[5] abbreviates: ARH3^D314A, 5 mM Mg^2+, 25 °C, pH 7.5.
Setting [6] is: ARH3^D77A, 5 mM Mg^2+, 25 °C, pH 7.5.

Residue numbers refer to the chain shown, from its start. Entries after “also recorded” stand apart in the source; their conditions may differ.

`O=C(O)CN(CCN(CC(=O)O)CC(=O)O)CC(=O)O` [EDTA]: in assay [1], the “effect on PAR hydrolysis by ARH3” value is on record as “inhibit; also recorded: effectively suppresses PAR hydrolysis”.

Turning to `[Ca+2].[Cl-].[Cl-]` [Ca^2+, CaCl2], the “effect on PAR hydrolysis by ARH3” value in assay [1] is given as “inhibit; also recorded: effectively suppresses PAR hydrolysis”. The “Ca2+-dependent inhibition of ARH3 PAR hydrolysis activity” value in assay [1] (in the presence of Mg2+ and increasing concentrations of Ca2+, 5 mM Ca2+) is reported as “sufficient to effectively inhibit ARH3 activity”.

In the case of `Nc1ncnc2c1ncn2[C@@H]1O[C@H](COP(=O)(O)OP(=O)(O)OC[C@H]2OC(O)[C@H](O)[C@@H]2O)[C@@H](O)[C@H]1O` (stereo partly shown) [ADPR, ADP-ribose], the “decrease in ADPR-binding affinity compared with ARH3^WT” value in assay [2] (ARH3^D314A versus ARH3^WT, Mg^2+) came to 44 fold. In addition, the Kd in assay [2] (setting [5]) stood at 62.9 ± 2.9 µM; in assay [3] (5 mM Ca^2+), 7.81 ± 0.51 µM; in assay [3] (5 mM EDTA (metal-free)) it was 80.7 ± 5.25 µM; in assay [3] (5 mM Mg^2+), 1.42 ± 0.07 µM; in assay [3] (5 mM Mn^2+), 0.83 ± 0.05 µM; in assay [4] (setting [6]) it was 0.06 ± 0.01 µM. Besides, the “N (sites)” value in assay [2] (setting [5]) worked out at 0.96 ± 0.04 sites; in assay [3] (5 mM Ca^2+) it was 1.18 ± 0.01 sites; in assay [3] (5 mM EDTA), 0.96 ± 0.08 sites; in assay [3] (5 mM Mg^2+), 1.12 ± 0.01 sites; in assay [3] (5 mM Mn^2+), 1.09 ± 0.01 sites; in assay [4] (setting [6]), 1.18 ± 0.01 sites. The ΔG is -5.74 kcal/M in assay [2] (setting [5]); -6.96 kcal/M in assay [3] (5 mM Ca^2+); -5.59 kcal/M in assay [3] (5 mM EDTA); -7.98 kcal/M in assay [3] (5 mM Mg^2+); -8.29 kcal/M in assay [3] (5 mM Mn^2+); -9.87 kcal/M in assay [4] (setting [6]). The ΔH in assay [2] (setting [5]) was -10.36 kcal/M; in assay [3] (5 mM Ca^2+) it was -5.71 kcal/M; in assay [3] (5 mM EDTA), -5.164 kcal/M; in assay [3] (5 mM Mg^2+), -9.29 kcal/M; in assay [3] (5 mM Mn^2+), -10.57 kcal/M; in assay [4] (setting [6]), -8.50 kcal/M. Also, the “−TΔS” value was 4.61 kcal/M in assay [2] (setting [5]); -1.25 kcal/M in assay [3] (5 mM Ca^2+); -0.42 kcal/M in assay [3] (5 mM EDTA); 1.31 kcal/M in assay [3] (5 mM Mg^2+); 2.28 kcal/M in assay [3] (5 mM Mn^2+); -1.37 kcal/M in assay [4] (setting [6]). In addition, in assay [3] (KD^Ca versus KD^Mg), the “reduction in ADPR-binding affinity with Ca^2+ compared with Mg^2+” value was “about a sixfold reduction”. Moreover, the “increase in binding affinity with Mg^2+ versus metal-free enzyme (EDTA)” value in assay [3] (KD^Mg versus KD^EDTA) was “approximately 60 fold”. Moreover, the “increase in ADPR-binding affinity compared with ARH3^WT” value in assay [4] (ARH3^D77A versus ARH3^WT, Mg^2+) came to 23 fold.

A word on the Kd: it is the concentration at which binding is half-saturated. Read a low Kd as higher affinity.
